{"source": "ChEMBL document CHEMBL4610076", "about": "“Renoprotective Mono- and Triterpenoids from the Fruit of Gardenia jasminoides” (J Nat Prod, 2020)", "note": "pEC50: −log10 of the molar value."}
{"tested_on": "NRK-52E", "test": "Cytoprotective activity against LPS-induced NRK-52E cells assessed as reduction in cell death measured every 5 min for 72 hrs by xCELLigence based RTCA analysis", "assay_type": "functional", "details": "Rattus norvegicus"}
{"smiles": "CC1=CC(=O)CC(C)(C)[C@@H]1CO[C@@H]1O[C@H](CO)[C@@H](O)[C@H](O)[C@H]1O", "pEC50": "< 4.00"}
{"smiles": "C[C@@H]1CC[C@]2(C(=O)O)CC[C@]3(C)C(=CC[C@@H]4[C@@]5(C)CC[C@H](O)C(CO)(CO)[C@@H]5CC[C@]43C)[C@@H]2[C@]1(C)O", "pEC50": 5.80}
{"smiles": "CC1=C(CO)C(C)(C)C[C@H](O)[C@@H]1O[C@@H]1O[C@H](CO)[C@@H](O)[C@H](O)[C@H]1O", "pEC50": "< 4.00"}
{"smiles": "Cc1ccc2c(c1C)C1=CC[C@@H]3[C@@]4(C)CC[C@H](O)C(CO)(CO)[C@@H]4CC[C@@]3(C)[C@]1(C)C[C@@H]2O", "pEC50": "< 4.00"}
{"smiles": "C=C(C)[C@@H]1CC[C@@H]2[C@]3(CC[C@]4(C)[C@@H]([C@H](CO)CC/C=C(/C)CO)CC[C@@]24C)C[C@]13CCC(=O)OC", "pEC50": "< 4.00"}
{"smiles": "CC1=C(C(=O)O)C(C)(C)C[C@H](O)[C@@H]1O", "pEC50": 6.84}
{"smiles": "C=C(C)[C@@H]1CC[C@@H]2[C@]3(CC[C@]4(C)[C@@H]([C@@H]5CC[C@H]([C@](C)(O)CO)OC5)CC[C@@]24C)C[C@]13CCC(=O)OC", "pEC50": "< 4.00"}
{"smiles": "CC1=C(C(=O)O[C@@H]2O[C@H](CO)[C@@H](O)[C@H](O)[C@H]2O)C(C)(C)CC[C@@H]1O", "pEC50": "< 4.00"}
{"smiles": "CC1(C)C[C@H](O)[C@H](O[C@@H]2O[C@H](CO)[C@@H](O)[C@H](O)[C@H]2O)C2=C1C(=O)OC2", "pEC50": "< 4.00"}
{"smiles": "CC1(C)CC(=O)C=C(C(=O)O)[C@@]1(C)O", "pEC50": "< 4.00"}
{"smiles": "C[C@@H]1CC[C@]2(C(=O)O)CC[C@]3(C)C(=CC[C@@H]4[C@@]5(C)CC[C@H](O)[C@@](C)(CO)[C@@H]5[C@H](O)C[C@]43C)[C@@H]2[C@]1(C)O", "pEC50": "< 4.00"}
{"smiles": "C=C1C(CO[C@@H]2O[C@H](COC(=O)/C=C/c3cc(OC)c(O)c(OC)c3)[C@@H](O)[C@H](O)[C@H]2O)=CC(=O)CC1(C)C", "pEC50": "< 4.00"}
{"smiles": "CO[C@H]1C[C@]2(C)C(=CC[C@@H]3[C@@]4(C)CC[C@H](O)C(CO)(CO)[C@@H]4CC[C@]32C)c2c1ccc(C)c2C", "pEC50": "< 4.00"}
{"smiles": "C[C@@H]1CC[C@]2(C(=O)O)CC[C@]3(C)C(=CC[C@@H]4[C@@]5(C)CC[C@H](O)C(C)(C)[C@@H]5CC[C@]43C)[C@@H]2[C@]1(C)O", "note": "[POMOLIC ACID]", "pEC50": 7.85}
{"smiles": "C=C(C)[C@@H]1CC[C@@H]2[C@]3(CC[C@]4(C)[C@@H]([C@H](CO)CC/C=C(/C)CO)CC[C@@]24C)C[C@]13CCC(=O)O", "pEC50": 4.94}
{"smiles": "Cc1c(C)c2c(c(C)c1O)CCC(C)(C(=O)O)O2", "note": "(stereo unspecified) [TROLOX]", "pEC50": 5.72}
{"smiles": "CC1=C(C(=O)O)C(C)(C)[C@@H](O)[C@H](O)C1", "pEC50": "< 4.00"}
{"smiles": "CC1=C(CO)C(C)(C)C[C@H](O)[C@@H]1O", "pEC50": "< 4.00"}
{"smiles": "C=C(CO)[C@@H]1CC[C@@H]2[C@]3(CC[C@]4(C)[C@@H]([C@H](CO)CC/C=C(/C)CO)CC[C@@]24C)C[C@]13CCC(=O)OC", "pEC50": "< 4.00"}
{"smiles": "CC1=CC(=O)CC(C)(C)[C@@H]1CO", "pEC50": 5.85}
{"smiles": "C[C@H]1[C@H](C)CC[C@]2(C(=O)O)CC[C@]3(C)C(=CC[C@@H]4[C@@]5(C)CC[C@H](O)[C@@](C)(CO)[C@@H]5CC[C@]43C)[C@H]12", "pEC50": "< 4.00"}
{"smiles": "C=C(C)[C@@H]1CC[C@@H]2[C@]3(CC[C@]4(C)[C@@H]([C@@H]5CC[C@H]([C@](C)(O)CO)OC5)CC[C@@]24C)C[C@]13CCC(=O)O", "pEC50": 4.42}
{"smiles": "CC1(C)CC(=O)C=C(C(=O)O)[C@]1(C)O", "pEC50": "< 4.00"}
{"smiles": "CC1(C)CC(O)CC2=C1C(=O)OC2", "note": "(stereo unspecified)", "pEC50": "< 4.00"}
{"smiles": "COC(=O)CC[C@]12C[C@]13CC[C@]1(C)[C@@H]([C@H](CO)CC/C=C(/C)CO)CC[C@@]1(C)[C@@H]3CC[C@H]2C(C)(C)O", "pEC50": 4.57}
{"smiles": "CC1(C)CC[C@]2(C(=O)O)CC[C@]3(C)C(=CC[C@@H]4[C@@]5(C)CC[C@H](O)[C@@](C)(CO)[C@@H]5[C@H](O)C[C@]43C)[C@@H]2[C@@H]1O", "pEC50": 6.93}
{"smiles": "CC1=C(C(=O)O)C(C)(C)C=CC1=O", "pEC50": "< 4.00"}
{"smiles": "CC1=C(CO)C(C)(C)C[C@H](O)[C@H]1O", "pEC50": "< 4.00"}
{"smiles": "COc1cc(/C=C/C(=O)OC[C@H]2O[C@@H](OC[C@H]3C(C)=CC(=O)CC3(C)C)[C@H](O)[C@@H](O)[C@@H]2O)cc(OC)c1O", "pEC50": 4.45}
{"smiles": "CC1=CC(=O)CC(C)(C)[C@H]1CO[C@@H]1O[C@H](CO)[C@@H](O)[C@H](O)[C@H]1O", "pEC50": 5.92}
{"smiles": "CC1=CC(=O)CC(C)(C)[C@]1(O)CO", "pEC50": "< 4.00"}
